Values of other authors in patent US20110123612A1, “PHARMACEUTICAL PREPARATION CONTAINING NON-DIHYDROPYRIDINE CALCIUM CHANNEL BLOCKER AND ANGIOTENSIN-2 RECEPTOR BLOCKER” (priority 2008, published 2011).

Tests used:
[1] = active form of losartan
[2] = active losartan molecule released into blood

CCCCc1nc(Cl)c(CO)n1Cc1ccc(-c2ccccc2-c2nn[nH]n2)cc1 [losartan]
anti-hypertensive effects of the active form [1]: ≥ 10 fold
time to peak blood concentration [2]: ≤ 1 h
